Source: patent US6896892B2, “Insecticide-impregnated fabric and method of production” (The United States of America as represented by the …, priority 2000, dated 2005)
“Also recorded” adds a separate entry of the source.

How the values were obtained:
[1] = tested on: Anopheles gambiae mosquitoes (Asembo [AB] strain); test: WHO cone bioassay of impregnated netting, knock-down and mortality, AB strain; format: in vivo; settings: nets 500 mg/m^2 permethrin alone; after one wash/rinse cycle
Procedure: (§1) Insectary-reared and sugar-fed Anopheles gambiae mosquitoes (Kisumu [KIS], G3 and Asembo [AB] strains), 3-4 days old, were tested for susceptibility (or resistance) to permethrin-impregnated nets, using the WHO adult mosquito susceptibility test kit. About 20 mosquitoes were used in each assay. Cohort mosquitoes were then used to bioassay the pyrethroid-impregnated netting samples using the WHO cone bioassay with a 3 minute exposure time. During an assay, the cone was held on its side, which placed the net sample in a perpendicular or vertical position with respect to the floor, as is the case when testing an actual hanging net. In each assay 7-12 mosquitoes were used with 3-4 such assays run for each experiment. After exposure for the prescribed time, mortality was determined after the mosquitoes were held overnight (24 hours) in clean cartons with sugar water for nourishment. Final mortality was corrected for control mortality. Knock-down was defined as the number of mosquitoes alive or dead, present on the floor of the carton 30 minutes after exposure. Knock-down is considered to be a more accurate measurement of insecticide efficacy because in the wild any mosquito that falls to the ground serves almost immediately as food for other insects (e.g., ants). Temperature and humidity conducive to the survival of the mosquitoes were maintained.

[2] = tested on: Anopheles gambiae mosquitoes (Kisumu [KIS], G3 and Asembo [AB] strains); test: WHO cone bioassay of impregnated netting, all strains; format: in vivo
Procedure: as §1

[3] = tested on: Anopheles gambiae mosquitoes (Kisumu [KIS] strain); test: WHO cone bioassay of impregnated netting, knock-down and mortality, KIS strain; format: in vivo; settings: nets 500 mg/m^2 permethrin alone; after five wash/rinse cycles
Procedure: as §1

[4] = tested on: Anopheles gambiae mosquitoes (G3 strain); test: WHO cone bioassay of impregnated netting, knock-down and mortality, G3 strain; format: in vivo; settings: nets 500 mg/m^2 permethrin alone; two wash/rinse cycles
Procedure: as §1

[5] = Wash/rinse cycles of netting samples, permethrin removed per cycle; format: physicochemical
Procedure: Netting samples were repeatedly washed and each wash and rinse solution was analyzed to determine the concentration of impregnated insecticide removed during each wash cycle. After several wash/rinse cycles, when the insecticidal efficacy had become depleted, the residual insecticide on the net was also determined.
A volume of 100 ml of a standardized detergent (2% aqueous sodium dodecyl sulfate [SDS]) was added to a 4 ounce wide mouth screw-cap bottle. An impregnated net sample (bioassayed beforehand) was folded twice and placed into the SDS solution, and the cap was applied and the bottle was shaken for 5 minutes on a mechanical shaker. After removing the cap, the net sample was removed, wrung out and placed in a 4 ounce bottle containing 100 ml of de-ionized water and shaken for five minutes, after which, the sample was removed, wrung out and left to dry overnight. The sample was rebioassayed the next day and at later times. To each wash solution was added a volume of 100 μl of the appropriate internal standard (IS) solution in acetone, and the contents were vigorously shaken by hand. To the rinse solution was added a 0.5 g quantity of dry SDS, and the contents were shaken to dissolve the SDS. Then a 100 μl volume of IS was added, and the contents were vigorously shaken. Two ml of each wash and rinse solution was then transferred to a 4 ml screw-cap vial, 3 ml of ethyl acetate were added and the contents were shaken. After centrifugation to clarify the ethyl acetate layer, about 1 ml of the ethyl acetate layer of each extract was transferred to an autosampler vial and injected onto the GC system described above to determine insecticide content.
For washing experiments involving permethrin, the wash and rinse solutions were injected directly onto a reversed-phase, high-performance liquid chromatographic system with ultraviolet (UV) detection, to determine the permethrin content of the solutions.

CC1(C)C(C=C(Cl)Cl)C1C(=O)OCc1cccc(Oc2ccccc2)c1 (stereo not drawn) [Permethrin Alone, permethrin]
effectiveness (knock-down and mortality) [1]: completely ineffective; also recorded: all effectiveness with this strain was lost | effectiveness against all strains ([2]; nets 500 mg/m^2 permethrin alone, six wash/rinse cycles): completely disappeared | effectiveness against all strains ([2]; nets 1000 mg/m^2 permethrin alone, after four washings): lost most of their effectiveness | knock-down [3]: less than 50% | mortality [3]: approximately 20% | knock-down [4]: approximately 20% | mortality [4]: ~10% | insecticide lost after the first washing ([5]; nets 500 or 1000 mg/m^2 permethrin alone): 63-90% | Amt (%) washed off during a W/R cycle ([5]; permethrin alone 500 mg/m^2, W/R = 1): 63.0% | Amt (%) washed off during a W/R cycle ([5]; permethrin alone 500 mg/m^2, W/R = 2): 4.3% | Amt (%) washed off during a W/R cycle ([5]; permethrin alone 500 mg/m^2, W/R = 3): 4.7% | Amt (%) washed off during a W/R cycle ([5]; permethrin alone 500 mg/m^2, W/R = 4): 17.5% | Amt (%) washed off during a W/R cycle ([5]; permethrin alone 500 mg/m^2, W/R = 5): 7.6% | Amt (%) washed off during a W/R cycle ([5]; permethrin alone 500 mg/m^2, W/R = 6): 2.8% | Amt (%) washed off during a W/R cycle ([5]; permethrin alone 1000 mg/m^2, W/R = 1): 90.7% | Amt (%) washed off during a W/R cycle ([5]; permethrin alone 1000 mg/m^2, W/R = 2): 2.4% | Amt (%) washed off during a W/R cycle ([5]; permethrin alone 1000 mg/m^2, W/R = 3): 0.9% | Amt (%) washed off during a W/R cycle ([5]; permethrin alone 1000 mg/m^2, W/R = 4): 0.9%
